Earlier results, collected in patent US12636282B1 (priority 2020, dated 2026).
Read-outs that look alike come from different tables or passages of the source.

How the values were obtained:
influenza = conditions: NAC 600 mg twice a day for 6 months; 79% with placebo
[1] = test system: lethal influenza infections; conditions: mice, lethal influenza infection
Coxackievirus B = conditions: in vivo; through suppressing viral replication and inflammatory responses
COVID-19 = conditions: early uncontrolled study

In the case of `CCN(CCO)CCCC(C)Nc1ccnc2cc(Cl)ccc12` (stereo not drawn) [HCQ, hydroxychloroquine], the “Retinal toxicity, share of patients” value (after 6 years of HCQ use) is given as 1.8%, the “Retinal toxicity, share of patients” value (after 11 years of HCQ use) is given as 3.3% and the “Retinal toxicity, share of patients” value (after 16 years of HCQ use) is given as 11.5%.

In the case of `CC(=O)N[C@@H](CS)C(=O)O` [NAC, N-acetyl cysteine], the “virus-infected subjects developing flu symptoms” value (influenza) is given as 25%, the Survival [1] is given as 20% and the “Coxackievirus B-induced myocarditis” value (Coxackievirus B) is given as “effectively alleviates”.

For `CCOC(=O)C1=C[C@@H](OC(CC)CC)[C@H](NC(C)=O)[C@@H](N)C1` [oseltamivir], the Survival [1] is listed as 60%.

In the case of “Tocilizumab: interleukin 6 (IL-6) receptor antibody”, the fever (COVID-19) is listed as “rapidly reduction in fever” and the oxygenation (COVID-19) is listed as “improvement in oxygenation”.
